39 molecules from patent EP4268824A1 (Manros Therapeutics, priority 2022, dated 2023) can be followed below.

In general, chromatographic logD refers to a lipophilicity value derived from retention on a column. The low end stands for a more hydrophilic compound, the high end for a more lipophilic compound.

SMILES strings stand for the structures.

This series is described as follows: LogD determined by HPLC. In kind it is physicochemical.
Regarding `CC(C)c1cnc2c(NCc3ccccc3)nc(NC3CCCC[C@@H]3O)nn12` (stereo in doubt) [compound 62, (1S)-2-[[4-(Benzylamino)-7-isopropyl-imidazo[2,1-f][1,2,4]triazin-2-yl]amino]cyclohexanol], the chromatographic logD turned out to be 3.6. The result for `COCCNc1nc(NCc2ccccc2)c2ncc(C(C)C)n2n1` [compound 1, N4-Benzyl-7-isopropyl-N2-(2-methoxyethyl)imidazo[2,1-f][1,2,4]triazine-2,4-diamine] reads 3.5; that for `CC(C)c1cnc2c(NCc3ccccc3)nc(NCCOc3ccccc3)nn12` [compound 2, N4-Benzyl-7-isopropyl-N2-(2-phenoxyethyl)imidazo[2,1-f][1,2,4]triazine-2,4-diamine], 4.74. The value for `CSCCNc1nc(NCc2ccccc2)c2ncc(C(C)C)n2n1` [compound 3, N4-Benzyl-7-isopropyl-N2-(2-methylsulfanylethyl)imidazo[2,1-f][1,2,4]triazine-2,4-diamine] was 4.13. `CC(C)c1cnc2c(NCc3ccccc3)nc(NCCCN(C)C)nn12` [compound 5, N4-Benzyl-N2-[3-(dimethylamino)propyl]-7-isopropyl-imidazo[2,1-f][1,2,4]triazine-2,4-diamine] returned a chromatographic logD of 2.1. The molecule `CC(C)c1cnc2c(NCc3ccccc3)nc(NC(C)(C)CO)nn12` [compound 18, 2-[[4-(Benzylamino)-7-isopropyl-imidazo[2,1-f][1,2,4]triazin-2-yl]amino]-2-methyl-propan-1-ol] registered a chromatographic logD of 3.32.

`CC(C)c1cnc2c(NCc3ccccc3)nc(NC3CCCCC3)nn12` [compound 59, N4-Benzyl-N2-cyclohexyl-7-isopropyl-imidazo[2,1-f][1,2,4]triazine-2,4-diamine] displayed a chromatographic logD of 5.47. The value for `CC(C)c1cnc2c(NCc3ccccc3)nc(NC3CCC(F)(F)CC3)nn12` [compound 60, N4-Benzyl-N2-(4,4-difluorocyclohexyl)-7-isopropyl-imidazo[2,1-f][1,2,4]triazine-2,4-diamine] was 4.57; that for `CC(C)c1cnc2c(NCc3ccccc3)nc(NC3CCN(C)CC3)nn12` [compound 61, N4-Benzyl-7-isopropyl-N2-(1-methyl-4-piperidyl)imidazo[2,1-f][1,2,4]triazine-2,4-diamine] was 2.14.

In the case of `CC(C)c1cnc2c(NCc3ccccc3)nc(NC3CCC(O)CC3)nn12` (stereo not drawn) [compound 63, 4-[[4-(Benzylamino)-7-isopropyl-imidazo[2,1-f][1,2,4]triazin-2-yl]amino]cyclohexanol], the chromatographic logD amounted to 2.93. As to `COC1CCC(Nc2nc(NCc3ccccc3)c3ncc(C(C)C)n3n2)CC1` (stereo not drawn) [compound 64, N4-Benzyl-7-isopropyl-N2-(4-methoxycyclohexyl)imidazo[2,1-f][1,2,4]triazine-2,4-diamine], the chromatographic logD turned out to be 4.48. The value for `CC(C)c1cnc2c(NCc3ccccc3)nc(NC3CCC[C@@H]3O)nn12` (stereo partly drawn) [compound 65, (1S)-2-[[4-(Benzylamino)-7-isopropyl-imidazo[2,1-f][1,2,4]triazin-2-yl]amino]cyclopentanol] was 3.26; that for `CC(C)c1cnc2c(NCc3cccnc3)nc(NC3CCC[C@@H]3O)nn12` (stereo partly drawn) [compound 66, (1S)-2-[[7-Isopropyl-4-(3-pyridylmethylamino)imidazo[2,1-f][1,2,4]triazin-2-yl]amino]cyclopentanol] was 2.36; that for `CO[C@H]1CCCC1Nc1nc(NCc2ccccc2)c2ncc(C(C)C)n2n1` (stereo partly drawn) [compound 67, N4-Benzyl-7-isopropyl-N2-[(2S)-2-methoxycyclopentyl]imidazo[2,1-f][1,2,4]triazine-2,4-diamine] was 4.25.

`CO[C@H]1CCCC1Nc1nc(NCc2cccnc2)c2ncc(C(C)C)n2n1` (stereo partly drawn) [compound 68, 7-Isopropyl-N2-[(2S)-2-methoxycyclopentyl]-N4-(3-pyridylmethyl)imidazo[2,1-f][1,2,4]triazine-2,4-diamine] came in with a chromatographic logD of 3.04.

With `CC(C)c1cnc2c(NCc3ccccc3)nc(N3CCC(O)C3)nn12` (stereo not drawn) [compound 76, 1-[4-(Benzylamino)-7-isopropyl-imidazo[2,1-f][1,2,4]triazin-2-yl]pyrrolidin-3-ol], the chromatographic logD was 3.16. This chromatographic logD and that of the molecule before are within 0.2 log units of each other.

In turn, `CC(C)c1cnc2c(NCc3cccnc3)nc(N3CCC(O)C3)nn12` (stereo not drawn) [compound 77, 1-[7-Isopropyl-4-(3-pyridylmethylamino)imidazo[2,1-f][1,2,4]triazin-2-yl]pyrrolidin-3-ol] showed a chromatographic logD of 2.29. `CC(C)c1cnc2c(NCc3ccccc3)nc(N3CC4(COC4)C3)nn12` [compound 78, N-Benzyl-7-isopropyl-2-(2-oxa-6-azaspiro[3.3]heptan-6-yl)imidazo[2,1-f][1,2,4]triazin-4-amine] gave a chromatographic logD of 3.42. The value for `COC1CCN(c2nc(NCc3ccccc3)c3ncc(C(C)C)n3n2)C1` (stereo not drawn) [compound 79, N-Benzyl-7-isopropyl-2-(3-methoxypyrrolidin-1-yl)imidazo[2,1-f][1,2,4]triazin-4-amine] was 4.42. The value for `COC1CCN(c2nc(NCc3cccnc3)c3ncc(C(C)C)n3n2)C1` (stereo not drawn) [compound 80, 7-Isopropyl-2-(3-methoxypyrrolidin-1-yl)-N-(3-pyridylmethyl)imidazo[2,1f][1,2,4]triazin-4-amine] was 3.06. The value for `COC1CCN(c2nc(NCc3ccccc3)c3ncc(C(C)C)n3n2)CC1` [compound 81, N-Benzyl-7-isopropyl-2-(4-methoxy-1-piperidyl)imidazo[2,1-f][1,2,4]triazin-4-amine] was 4.6. Molecule `COC1CCN(c2nc(NCc3cccnc3)c3ncc(C(C)C)n3n2)CC1` [compound 82, 7-Isopropyl-2-(4-methoxy-1-piperidyl)-N-(3-pyridylmethyl)imidazo[2,1-f][1,2,4]triazin-4-amine] had a chromatographic logD of 3.15. The value for `CC(C)c1cnc2c(NCc3ccccc3)nc(N3CCSCC3)nn12` [compound 83, N-Benzyl-7-isopropyl-2-thiomorpholino-imidazo[2,1-f][1,2,4]triazin-4-amine] was 5.05. `CC(C)c1cnc2c(NCc3cccnc3)nc(N3CCSCC3)nn12` [compound 84, 7-Isopropyl-N-(3-pyridylmethyl)-2-thiomorpholino-imidazo[2,1-f][1,2,4]triazin-4-amine] had a chromatographic logD of 3.5. With `CC(C)c1cnc2c(NCc3ccccc3)nc(N3CCC(O)CC3)nn12` [compound 85, 1-[4-(Benzylamino)-7-isopropyl-imidazo[2,1-f][1,2,4]triazin-2-yl]piperidin-4-ol], the chromatographic logD stood at 3.19.

Molecule `CC(C)c1cnc2c(NCc3cccnc3)nc(N3CCC(O)CC3)nn12` [compound 86, 1-[7-Isopropyl-4-(3-pyridylmethylamino)imidazo[2,1-f][1,2,4]triazin-2-yl]piperidin-4-ol] displayed a chromatographic logD of 2.3. The value for `CC(C)c1cnc2c(NCc3ccccc3)nc(N3CCCCC3CCO)nn12` (stereo not drawn) [compound 87, 2-[1-[4-(Benzylamino)-7-isopropyl-imidazo[2,1-f][1,2,4]triazin-2-yl]-2-piperidyl]ethanol] was 2.71; that for `CC(C)c1cnc2c(NCc3ccccc3)nc(NCC3CCN(C)CC3)nn12` [compound 104] was 2.2.

The molecule `CC(C)c1cnc2c(NCc3ccccc3)nc(NCC3CCCCC3)nn12` [compound 105, N4-Benzyl-N2-(cyclohexylmethyl)-7-isopropyl-imidazo[2,1-f][1,2,4]triazine-2,4-diamine] registered a chromatographic logD of 5.9. The molecule `CC(C)c1cnc2c(NCc3ccccc3)nc(NCCC3CCCN3C)nn12` (stereo not drawn) [compound 106, N4-Benzyl-7-isopropyl-N2-[2-(1-methylpyrrolidin-2-yl)ethyl]imidazo[2,1-f][1,2,4]triazine-2,4-diamine] yielded a chromatographic logD of 2.16. The result for `CC(C)c1cnc2c(NCc3ccccc3)nc(Nc3nccn3C)nn12` [compound 109, N4-Benzyl-7-isopropyl-N2-(1-methylimidazol-2-yl)imidazo[2,1-f][1,2,4]triazine-2,4-diamine] reads 3.12; that for `CC(C)c1cnc2c(NCc3ccccc3)nc(Nc3cnn(C)c3)nn12` [compound 110, N4-Benzyl-7-isopropyl-N2-(1-methylpyrazol-4-yl)imidazo[2,1-f][1,2,4]triazine-2,4-diamine], 2.89. The result for `CC(C)c1cnc2c(NCc3ccccc3)nc(Nc3ccccc3)nn12` [compound 114, N4-Benzyl-7-isopropyl-N2-phenyl-imidazo[2,1-f][1,2,4]triazine-2,4-diamine] reads 4.64; that for `CC(C)c1cnc2c(NCc3ccccc3)nc(NCc3cnn(C)c3)nn12` [compound 115, N4-Benzyl-7-isopropyl-N2-[(1-methylpyrazol-4-yl)methyl]imidazo[2,1-f][1,2,4]triazine-2,4-diamine], 2.98; that for `CC(C)c1cnc2c(NCc3ccccc3)nc(NCc3nccn3C)nn12` [compound 116, N4-Benzyl-7-isopropyl-N2-[(1-methylimidazol-2-yl)methyl]imidazo[2,1-f][1,2,4]triazine-2,4-diamine], 2.49. Molecule `CC(C)c1cnc2c(NCc3ccccc3)nc(NCc3ccccc3)nn12` [compound 121, N2,N4-Dibenzyl-7-isopropyl-imidazo[2,1-f][1,2,4]triazine-2,4-diamine] gave a chromatographic logD of 4.6. `CC(C)c1cnc2c(NCc3ccccc3)nc(NCc3ccc(F)cc3)nn12` [compound 122, N4-Benzyl-N2-[(4-Fluorophenyl)methyl]-7-isopropyl-imidazo[2,1-f][1,2,4]triazine-2,4-diamine] showed a chromatographic logD of 4.64. `CC(C)c1cnc2c(NCc3ccccc3)nc(NCc3ccccn3)nn12` [compound 123, N4-Benzyl-7-isopropyl-N2-(2-pyridylmethyl)imidazo[2,1-f][1,2,4]triazine-2,4-diamine] had a chromatographic logD of 3.26. `CC(C)c1cnc2c(NCc3ccccc3)nc(NCc3cccnc3)nn12` [compound 124, N4-Benzyl-7-isopropyl-N2-(3-pyridylmethyl)imidazo[2,1-f][1,2,4]triazine-2,4-diamine]: the chromatographic logD was determined as 3.12.
